Laboratory results as given in the supplement of paper PMC6045584.
± gives the standard deviation of the averaged measurements.

Tests used:
[1] = compound: CCc1cc(Nc2nccc(-c3c(-c4ccc(OC)c(C(=O)Nc5c(F)cccc5F)c4)nc4ccccn34)n2)c(OC)cc1N1CCC(N2CCN(S(C)(=O)=O)CC2)CC1; test: surviving fraction relative to DMSO-only wells; higher = less growth inhibition; settings: exposure time: 5 days
Procedure, shortened: (§1)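 Viability was scored with CellTiter-Glo luminescence and normalised to the median of DMSO-only wells as surviving fraction. Beforehand, log-phase tumour cell lines were seeded at 250–500 cells per well in 384-well plates, allowed 24 hours, and exposed continuously for five days to inhibitors at 0.5, 1, 5, 10, 50, 100, 500 and 1000 nM. Only lines whose three screens gave replicate Pearson r >0.7 and median Z' >0.3 were kept.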

[2] = compound: Cc1cn(-c2cc(NC(=O)c3ccc(C)c(Nc4nccc(-c5cccnc5)n4)c3)cc(C(F)(F)F)c2)cn1 [NILOTINIB]; test: as above; settings: exposure time: 5 days
Procedure, shortened: as §1

| Test System | surviving fraction ([1]; 0.5 nM) | surviving fraction ([1]; 1 nM) | surviving fraction ([1]; 5 nM) | surviving fraction ([1]; 10 nM) | surviving fraction ([1]; 50 nM) | surviving fraction ([1]; 100 nM) | surviving fraction ([1]; 500 nM) | surviving fraction ([1]; 1000 nM) | surviving fraction ([2]; 0.5 nM) | surviving fraction ([2]; 1 nM) | surviving fraction ([2]; 5 nM) | surviving fraction ([2]; 10 nM) | surviving fraction ([2]; 50 nM) | surviving fraction ([2]; 100 nM) | surviving fraction ([2]; 500 nM) | surviving fraction ([2]; 1000 nM) |
| --- | --- | --- | --- | --- | --- | --- | --- | --- | --- | --- | --- | --- | --- | --- | --- | --- |
| SG27 HEADNECK | 1.04 ± 0.066 | 0.999 ± 0.11 | 1.06 ± 0.065 | 1.13 ± 0.057 | 1.05 ± 0.065 | 1.17 ± 0.19 | 1.2 ± 0.034 | 1.15 ± 0.071 | 1.13 ± 0.03 | 1.09 ± 0.087 | 1.02 ± 0.066 | 1.06 ± 0.063 | 1.11 ± 0.21 | 1.04 ± 0.056 | 1.17 ± 0.091 | 1.23 ± 0.051 |
| SG28 HEADNECK | 1.01 ± 0.085 | 1.09 ± 0.099 | 1.04 ± 0.099 | 1.07 ± 0.082 | 1.1 ± 0.1 | 1.04 ± 0.041 | 1.22 ± 0.07 | 1.21 ± 0.061 | 1.07 ± 0.044 | 1.05 ± 0.025 | 1.07 ± 0.062 | 1.07 ± 0.042 | 0.782 ± 0.042 | 0.907 ± 0.068 | 0.84 ± 0.013 | 0.903 ± 0.067 |
| SG31 HEADNECK | 0.923 ± 0.036 | 1.08 ± 0.23 | 1.04 ± 0.2 | 0.903 ± 0.099 | 1.04 ± 0.14 | 1.14 ± 0.2 | 1.08 ± 0.26 | 1.1 ± 0.086 | 1.24 ± 0.13 | 1.2 ± 0.13 | 1.08 ± 0.11 | 1.24 ± 0.21 | 1.14 ± 0.081 | 1.26 ± 0.17 | 1.02 ± 0.15 | 1.16 ± 0.13 |
| SG32 HEADNECK | 1.07 ± 0.22 | 1.11 ± 0.026 | 1.15 ± 0.089 | 1.17 ± 0.15 | 1.15 ± 0.23 | 1.21 ± 0.1 | 1.6 ± 0.59 | 1.15 ± 0.017 | 0.984 ± 0.025 | 0.986 ± 0.062 | 1.16 ± 0.12 | 1.24 ± 0.26 | 0.823 ± 0.21 | 0.864 ± 0.16 | 0.866 ± 0.039 | 0.834 ± 0.12 |
| SG43 HEADNECK | 1.18 ± 0.18 | 1.1 ± 0.26 | 0.948 ± 0.15 | 0.985 ± 0.15 | 1.13 ± 0.046 | 0.908 ± 0.12 | 1.38 ± 0.024 | 1.25 ± 0.3 | 1.19 ± 0.17 | 1.12 ± 0.25 | 1.05 ± 0.13 | 1.05 ± 0.055 | 1.66 ± 0.17 | 1.76 ± 0.32 | 1.93 ± 0.23 | 1.98 ± 0.2 |
| SIHA CERVIX | 1.01 ± 0.019 | 1.04 ± 0.071 | 1.06 ± 0.055 | 1.11 ± 0.046 | 1.05 ± 0.084 | 1.18 ± 0.053 | 1.02 ± 0.037 | 1.09 ± 0.034 | 1.03 ± 0.029 | 1.02 ± 0.029 | 1 ± 0.024 | 1.11 ± 0.04 | 1.09 ± 0.036 | 1.061 ± 0.0087 | 1.05 ± 0.055 | 1.03 ± 0.037 |
| SJSA1 BONE | 1.03 ± 0.038 | 0.99 ± 0.056 | 1.08 ± 0.066 | 1.1 ± 0.065 | 1.07 ± 0.013 | 1.09 ± 0.024 | 1.03 ± 0.056 | 1.03 ± 0.013 | 1.73 ± 0.13 | 1.67 ± 0.1 | 1.65 ± 0.08 | 1.802 ± 0.014 | 1.56 ± 0.1 | 1.69 ± 0.04 | 1.63 ± 0.074 | 1.77 ± 0.044 |
| SKBR3 BREAST | 1.04 ± 0.12 | 1.06 ± 0.18 | 1.05 ± 0.057 | 0.99 ± 0.089 | 0.983 ± 0.13 | 1.01 ± 0.099 | 0.849 ± 0.082 | 0.664 ± 0.048 | 1.01 ± 0.13 | 1.02 ± 0.074 | 1 ± 0.037 | 0.994 ± 0.13 | 0.731 ± 0.097 | 0.826 ± 0.18 | 0.744 ± 0.061 | 0.775 ± 0.076 |
| SNU475 LIVER | 0.88 ± 0.066 | 0.966 ± 0.042 | 0.982 ± 0.024 | 0.976 ± 0.062 | 0.982 ± 0.025 | 0.956 ± 0.023 | 0.957 ± 0.054 | 0.875 ± 0.061 | 1.05 ± 0.028 | 1 ± 0.036 | 1.01 ± 0.031 | 1.04 ± 0.017 | 0.941 ± 0.026 | 0.939 ± 0.03 | 0.953 ± 0.024 | 0.858 ± 0.076 |
| SUM44 BREAST | 1.07 ± 0.041 | 1.04 ± 0.015 | 1.06 ± 0.037 | 1.07 ± 0.023 | 1.07 ± 0.062 | 1.155 ± 0.0075 | 0.9687 ± 0.0055 | 0.994 ± 0.034 | 1.03 ± 0.19 | 1.04 ± 0.21 | 1.08 ± 0.23 | 1.07 ± 0.15 | 0.958 ± 0.012 | 0.934 ± 0.059 | 0.943 ± 0.064 | 0.932 ± 0.083 |
